Laboratory results published in patent US20230257771A1, “AAV DELIVERY SYSTEM FOR LUNG CANCER TREATMENT” (Christiana Care Health Services, Inc., priority 2020, published 2023).
“Also recorded” adds a separate entry of the source.

Columns and labels:
[1] = test system: 2-11 A549 cells (NRF2 knockout); experiment: MTS cell proliferation assay after drug exposure, NRF2 knockout A549 (2-11); format: cell-based, human; settings: 72 hours; for chemosensitivity (MTS): increasing dosages of single drug
Method: (§1) Cell viability was evaluated using the CellTiter 96 Aqueous Non-Radioactive Cell Proliferation Assay (Promega, Madison, WI). A549 cell lines were plated at 2×10^3 cells per well and allowed to culture for 24 hours. The cell media was then aspirated, the cells washed with PBS, then exposed to the MTS reagent for 3 hours. After 3 hours of MTS bio-reduction by proliferating cells, the formazan product’s absorbance was measured using a 450 nm filter on an Infinite 2000 PRO microplate reader (Tecan, Mannadorf, Switzerland). Cell viability after drug exposure was evaluated using the CellTiter 96 Aqueous Non-Radioactive Cell Proliferation Assay. A549 cell lines were plated at 2×10^3 cells per well and allowed to culture for 24 hours. The cells were then treated with cisplatin, carboplatin, or a combination of cisplatin and vinorelbine for three days. The cell media was then aspirated, the cells washed with PBS, then exposed to the MTS reagent for 3 hours. After 3 hours of MTS bio-reduction by proliferating cells, the formazan product’s absorbance was measured using a 450 nm filter on an Infinite 2000 PRO microplate reader.

[2] = test system: NRF2 knockout A549 (2-11) tumors; experiment: Xenograft mouse model, NRF2 knockout A549 (2-11) tumors; format: in vivo
Method: (§2) The animal trials presented herein were carried out at Washington Biotech Inc., Simpsonville Maryland, under animal use and care protocol (SOP 505, SOP 520, SOP 522, SOP 1610, SOP1650) approved by the animal care and use committee of Washington Biotechnology Inc. (AAALAC accredited Animal Welfare Assurance number A4192-01). The human xenograft model was established using methodology reported previously. Kellar et al., Biomed Res. Int. 2015, 1-17 (2015). Female athymic nude mice (Envigo, 5-6 weeks old) were used in this study. Approximately 5 × 10^6 cells (wild type A549 or homozygous knockout (clonal expansion 2-11)) suspended in PBS with 20% Matrigel were injected subcutaneously into right flank of each mouse. Tumor volume was measured three times a week with a digital caliper once palpable, and calculated using the formula, tumor size = ab^2/2, where ‘a’ is the larger and ‘b’ is the smaller of the two dimensions. When tumors grew up to a mean volume of around 100 mm^3, A549 tumor bearing mice or A549-2-11 tumor bearing mice were randomly divided into 7 groups (N=5 for each group) respectively and subject to dose/regimen-finding study. They were treated with tail vein injection of (1) Cisplatin (2 mg/kg), (2) Carboplatin (25 mg/kg), (3) Cisplatin (5 mg/kg) and Vinorelbine (5 mg/kg) or (4) saline on day 0, 3, 6 and 9 (day 0 is designated as the day of dose started) (Sanjana et al., 2014, Nature Methods 11(8); 783-784). Tumor volume and body weight was closely monitored over time. After 16 days, the animals were sacrificed, with tumor removed, weighed and processed for molecular analysis. Mice were euthanized. The data were expressed as mean ± SD. Student’s t-test and one-way or two-way ANOVA was used to assess the significance of difference. A P value < 0.05 was considered significant.
A549 xenografts were resected on day 16, snap frozen in liquid nitrogen and stored in -80° C. until usage. All immunofluorescence staining was performed as previously described. Wang et al., Investig. Opthalmology Vis. Sci. 58, 3896 (2017). Briefly, tumors were embedded in Optimum Cutting Temperature (Tissue Tek, Torrance, CA, USA) and 16-µm-thick sections were obtained with a Leica CM3050 cryostat (Leica Microsystems, Buffalo Grove, IL, USA), and mounted on slides. Slides were fixed and incubated with blocking buffer for 1 hour at room temperature. Sections were then incubated with primary antibody (refer to Table 3 for more details), then washed in PBS and incubated with Alexa Fluor 488 labeled secondary antibody (1:200 dilution; Invitrogen, Grand Island, NY, USA) for 1 hour at RT. Sections were washed in PBS, then mounted with SlowFade Gold antifade mountant with DAPI (Invitrogen, Carlsbad, CA, USA). […]

A549 Clone 2-16 cells = experiment: MTS assay, A549 Neh2 KO Clone 2-16 treated with cisplatin; format: cell-based, human; settings: cisplatin 1, 2, 3, 5, 10 uM, compared to wildtype A549
Text: (§3) The lung adenocarcinoma-derived cell line, A549, was used transfected with CRISPR/Cas9 designed to target exon 2 of NRF2 to create individual clones with random indel patterns. A total of three clones, 1-17, 2-16, and 2-23, were isolated and expanded. All three clones were collected for genomic DNA isolation and sanger sequencing to confirm the indels present. The DECODR program was used to deconvolute the sanger sequencing of each clone. The A549 cell line is polyploid and therefore, these clones contain 3 alleles of the NRF2 gene. Clone 1-17 contains -2, -2, -13 base pair deletions. Clone 2-16 contains a -1 base pair deletion across all alleles. Clone 2-23 contains two wildtype alleles and a -2 base pair deletion. A cell proliferation assay was used to assess the functionality of NRF2 after CRISPR targeting in combination with cisplatin treatment. The MTS assay was used to measure cellular proliferation of A549 wildtype, Clone 1-17, 2-16, and 2-23 cells. Cells were plated at the same concentration in each well and allowed to recover for 24 hours. […] Absorbance values for each clone and concentration were normalized by dividing the absorbance by the absorbance of each control well (0 µM). Normalized values for each clone at each concentration were then averaged across and standard error of the mean was calculated. […]

A549 Clone 1-17 cells = experiment: MTS assay, A549 Neh2 KO Clone 1-17 treated with cisplatin; format: cell-based, human; settings: cisplatin 1, 2, 3, 5, 10 uM, compared to wildtype A549
Text: as §3

A549 Clone 2-23 cells = experiment: MTS assay, A549 Neh2 KO Clone 2-23 treated with cisplatin; format: cell-based, human; settings: cisplatin 1, 2, 3, 5, 10 uM, compared to wildtype A549
Text: as §3

wild type A549 tumors = experiment: Xenograft mouse model, wild type A549 tumors; format: in vivo
Method: as §2, with “They were treated with tail vein injection of (1) Cisplatin (2 mg/kg), (2) Carboplatin (25 mg/kg), (3) Cisplatin (5 mg/kg) and Vinorelbine (5 mg/kg) or (4) saline on day 0, 3, 6 and 9 (day 0 is designated as the day of dose started) (Sanjana et al., 2014, Nature Methods 11(8); 783-784).” left out, “After 16 days, the animals were sacrificed, with tumor removed, weighed and processed for molecular analysis. Mice were euthanized.” left out, “Student’s t-test and one-way or two-way ANOVA was used to assess the significance of difference. A P value < 0.05 was considered significant.” left out

wild type A549 cells = experiment: MTS cell proliferation assay after drug exposure, wild type A549; format: cell-based, human; settings: 72 hours
Method: as §1

[3] = 5 mg/kg cisplatin and 5 mg/kg vinorelbine in combination
[4] = cisplatin 2 mg/kg, tumors harvested day 16
[5] = increasing cisplatin with Vinorelbine at 5 µM
[6] = increasing dosages of cisplatin

## N.N.O=C([O-])C1(C(=O)[O-])CCC1.[Pt+2] [carboplatin]
[1]; listed as Carboplatin
  chemosensitivity (MTS): the cell killing response reflected what was observed in the experiments using cisplatin
[2]; 25 mg/kg carboplatin tail vein
  tumor growth over 16 days: reduction in tumor proliferation

## N.N.[Cl][Pt][Cl] [cisplatin]
A549 Clone 2-16 cells
  sensitivity to cisplatin (MTS): relatively the same trend of sensitivity
A549 Clone 1-17 cells
  sensitivity to cisplatin (MTS): relatively the same trend of sensitivity
A549 Clone 2-23 cells
  sensitivity to cisplatin (MTS): even higher resistance than the wildtype cells
Wild type A549 tumors; [3]
  tumor growth over 16 days: more sensitive to this combination of drugs
Wild type A549 tumors; [4]
  size of extracted tumors: proliferate aggressively
[1]; cisplatin
  concentrations with loss of proliferation: ≥ 1 µM
[1]; [5]
  chemosensitivity (MTS), combination: increased sensitivity; also recorded: a heightened sensitivity is also observed
[1]
  chemosensitivity (MTS): heightened sensitivity
Wild type A549 cells; [5]
  cisplatin dosage above which elevated sensitivity is shown: > 5 µM
Wild type A549 cells; [6]
  dose dependence of cell proliferation (MTS): slight increase in cell proliferation up to 3 µM of cisplatin before proliferation is adversely affected at final concentrations of 5 µM and 10 µM
  resistance to drug (MTS proliferation): resistant to high dosages
[2]; [3]
  tumor growth over 16 days: cessation of tumor growth and maintenance of tumor size; also recorded: reduction in tumor proliferation
[2]; cisplatin 2 mg/kg tail vein, day 0, 3, 6, 9
  tumor growth over 16 days: proliferation of the implanted cells is arrested; also recorded: reduction in tumor proliferation
[2]; [4]
  size of extracted tumors: smallest tumors
